For orientation: IC50 means the concentration that gives 50% inhibition. A high value points to weaker potency in that assay. One may read the viability as the share of living cells, or the viability signal relative to a control.

The results in this text go back to US9730902B2, “Polyamine transport inhibitors as novel therapeutics” (University of Central Florida Research Foundation, Inc., priority 2009, dated 2017).

Entries after “also recorded” stand apart in the source; their conditions may differ.

Data set [1] concerns SW620 cells. Nature of the data set: cells. The conditions noted are these: for Relative viability: human, 72 h. As for the experimental part:
The first assay implements the growth of mammalian cells in a 96 well plate format on tissue culture plates.
1.) The media contains a maximum of 2 mM aminoguanidine and a minimum of 0.25 mM aminoguanidine to prevent a cell culture artifact (i.e., degradation of native polyamines and PTI structures that contain terminal amine structures (e.g., trimer 3c) by bovine serum amine oxidases present in the cell culture media). As a general rule, aminoguanidine (AG) is not dosed at a concentration which induces 20% or more cytostasis in the cell line examined. This minimizes AG side-effects. All of the following treatments are begun 24 hours after seeding the cells.
3.) The maximum tolerated dose (MTD) of the PTI is determined by titrating it without the presence of DFMO or polyamine. The MTD is defined as the maximum concentration of the drug (e.g., PTI) that is shown to keep 100% of the cell population alive compared to the control ±10%.
(§1) This is defined as the “MTD under DFMO treatment.”
6.) The combination of DFMO, polyamine, and PTI are treated concomitantly after 24 hours of growth in a 96-well tissue culture treated plate. The duration of treatment is determined by step 2 for all three reagents. The concentration of DFMO is determined in step 2, the concentration of polyamine is determined in step 4 and the concentration of PTI is determined by step 3, the MTD. Note if the MTD of the PTI is altered by the presence of DFMO then the “MTD under DFMO treatment” is used as determined in step 6. The untreated control cells, DFMO only treatment, and DFMO+polyamine treatment, must be shown on the same plate as the experimental samples with PTI to ensure that these controls are working properly.
The first assay measures the ability of the new transport inhibitors to block rescue of DFMO-treated cells by putrescine (a native polyamine).

Data set [2] has as its system L3.6pl cells. Briefly: Block of spermidine rescue of DFMO-treated cells. The format is cell-based, human. As for the experimental part:
FIG. 3 is a chart showing the block of spermidine rescue by trimer in a does dependent fashion in L3.6pl cells. […] This minimizes AG side-effects. […] The second assay measures the ability of the new transport inhibitor (the trimer 3c) to block rescue of DFMO-treated cells by spermidine. […] As shown below, the L3.6pl cells were dosed with 5 mM DFMO, which reduced their viability during the 48 hour incubation period to 60% of the control growth without DFMO (2nd column). However, these cells were rescued by the addition of exogenous spermidine (0.5 µM, 3rd column). […] However, in the presence of the trimer (i.e., the polyamine transport inhibitor 3c) we were able to block this rescue effect of spermidine (Spd) in a dose-dependent fashion (3c: 0.1 to 5 µM). For example, 3c at 2 µM in the presence of DFMO (5 mM)+spermidine (0.5 µM) gave 60% viability (7th column). Without the presence of the trimer, spermidine rescues the cells and one observes >90% viability (3rd column). The resulting data is in Table 1 and FIG. 3.

For data set [3], the system named is CHO-K1 cells. Nature of the data set: Block of uptake of cytotoxic PAT probe Ant44 (cell rescue). The conditions noted are these: for PAT inhibition: block of uptake of Ant44 at non-toxic concentrations; for rescue of cells from Ant44: inhibitor at 0.1 uM; for toxicity of inhibitor to cells: inhibitor at 100 uM in the presence of Ant44 (0.5 uM). The format is cell-based, Chinese hamster. As for the experimental part: FIG. 6. In CHO-K1 cells, cytotoxic compound Ant44 was dosed at 0.5 μM in the presence of 2 mM aminoguanidine and either Triamide 5c or Trimer 3c at varying concentrations then incubated for 48 hours. […] Note: 5c was able to rescue the CHO cells from Ant44 but required a higher dose of 5c (1 uM). Note: […] Note that all experiments performed contained a maximum of 2 mM aminoguanidine to prevent break-down of polyamine analogues in the serum. This cell culture artifact only arises due to bovine copper-dependent serum amine oxidases which are not present in humans and are therefore not of a concern. […] This is reflective upon their low Ki values observed in L1210 cells (Phanstiel reference).
FIG. 7. In CHO-K1 cells, the PAT-selective cytotoxic agent Ant44 was dosed at 0.5 μM in the presence of Trimer 3c at varying concentrations (in nM) and incubated for 48 hours. Note that 2 mM aminoguanidine was added to the media to blockade degradation by serum amine oxidases.
In this manner, the PTI (e.g. 1 uM) dosed at completely non-toxic concentrations was able to block the uptake of the toxic Ant44 compound (Ant44 dosed at its IC50 value, 0.5 uM). […] These experiments (FIGS. 6 and 7) were done in Chinese hamster ovary cells (CHO-K1) cells.

The subject of data set [4] is L3.6pl metastatic pancreatic cancer. Nature of the data set: Block of putrescine rescue of DFMO-treated cells. Type of data set: cell-based, human. The procedure:
The MTD of 3c in this cell line is 5 μM. All treatments (DFMO, putrescine, and 3c) were dosed simultaneously and for a duration of 72 hours.
The MTD of 3c in this cell line is 5 μM. All treatments (DFMO, putrescine, and 3c) were dosed simultaneously and for a duration of 48 hours.

Data set [5] relates to MiaPaca-2 pancreatic cancer. Nature of the data set: Block of putrescine rescue of DFMO-treated cells. Type of data set: cell-based, human. The procedure: The MTD under DFMO treatment of 3c in this cell line is 1 μM and as such the therapy became toxic at 2 μM. If the therapy is not toxic to normal cells, then this therapy is also valid for concentrations above 1 μM. All treatments (DFMO, putrescine, and 3c) were dosed simultaneously and for a duration of 96 hours.

For data set [6], the system named is L3.6pl metastatic pancreatic cancer. Briefly: Maximum tolerated dose (MTD) of the PTI. The format is cell-based. The note with it: L3.6pl cell line.
Data set [7] has as its system MiaPaca-2 pancreatic cancer. Briefly: MTD under DFMO treatment. The format is cell-based.
Description: as §1

For data set [8], the system named is import of putrescine. Nature of the data set: Selectivity of blocking import of native polyamines. Type of data set: cell-based. The conditions noted are these: putrescine versus spermidine and spermine, at the dosage used.
Data set [9] concerns SW480. Nature of the data set: Response of cell growth to DFMO. The format is cell-based.
Data set [10] relates to RKO. Nature of the data set: Response of cell growth to DFMO. The format is cell-based.
Data set [11] has as its system HCT-116. Briefly: Response of cell growth to DFMO. The format is cell-based.
In data set [12] the test system is Panc-1. Nature of the data set: Response of cell growth to DFMO. The format is cell-based.

With `NCCCCNCCCCNCc1cc(CNCCCCNCCCCN)cc(CNCCCCNCCCCN)c1` [3c, N-(4-Amino-butyl)-N′-(3,5-bis-{[4-(4-amino-butylamino)-butylamino]-methyl}-benzyl)-butane-1,4-diamine], the Relative viability in data set [1] (0.1 uM) turned out to be 100%; in data set [1] (0.5 uM), 75%. The “% Viability” value in data set [2] (5 mM DFMO + 0.5 uM Spd + trimer 0.1, 48 hour) amounted to 90%; in [2] (5 mM DFMO + 0.5 uM Spd + trimer 0.5, 48 hour), 88%; in data set [2] (5 mM DFMO + 0.5 uM Spd + trimer 1, 48 hour), 73%; in [2] (5 mM DFMO + 0.5 uM Spd + trimer 2, 48 hour), 60%; in data set [2] (5 mM DFMO + 0.5 uM Spd + trimer 3, 48 hour), 53%; in data set [2] (5 mM DFMO + 0.5 uM Spd + trimer 5, 48 hour), 45%. In addition, the “concentration able to protect CHO-K1 cells from Ant44” value in data set [3] (Ant44 0.5 uM, 2 mM aminoguanidine, 48 hours, further titration) was determined as 80 nM. The PAT inhibition result in data set [3] is “potent PAT inhibitors”. Moreover, the “rescue of cells from Ant44” value in data set [3] (Ant44 0.5 uM, 48 hours) was “complete rescue”. In data set [3], the “toxicity of inhibitor to cells” value is recorded as “moderate toxicity”. Moreover, the “concentration from which treatment is effective” value in [4] (competing with 0.5 μM of putrescine, 48 hours) was 0.5 µM; in [4] (competing with 1 μM of putrescine, 72 hours), 1 µM; in [5] (competing with 0.5 μM of putrescine, with DFMO, 96 hours), 1 µM. Also, in data set [5] (0.5 μM of 3c, 0.5 μM of putrescine, DFMO, 96 hours), the treatment effect result was “incomplete but effective treatment”. This compound also yielded an MTD in data set [6] of 5 µM. Besides, the “MTD under DFMO treatment” value in data set [7] (MiaPaca-2, 96 hours) was 1 µM. Besides, the “concentration at which the therapy became toxic” value in data set [7] (MiaPaca-2, with DFMO, 96 hours) came to 2000 nM.

Consider `NCCCCNCCCCNC(=O)c1cc(C(=O)NCCCCNCCCCN)cc(C(=O)NCCCCNCCCCN)c1` [5c, Benzene-1,3,5-tricarboxylic acid tris-{[4-(4-amino-butylamino)-butyl]-amide}], for which, in [3] (Ant44 0.5 uM, 48 hours), the “dose required to rescue the CHO cells from Ant44” value stood at 1 µM and the “rescue of cells from Ant44” value is recorded as “unable to rescue”. Besides, in data set [3], the PAT inhibition entry was “potent PAT inhibitors” and the “toxicity of inhibitor to cells” value was “moderate toxicity”. Also, the “selectivity of blocking import of native polyamines” value in data set [8] was “selectively blocks import of putrescine; also recorded: specific for putrescine”.

For `NCCCCNCCCCNCc1c2ccccc2cc2ccccc12` [Ant44, anthracen-9-ylmethyl-homospermidine conjugate, reference compound], the “viability relative to untreated CHO-K1 cells” value in data set [3] (Ant44 0.5 uM without PAT inhibitor, 2 mM aminoguanidine, 48 hours) is on record as 40%. In [3] (cytotoxicity of Ant44, CHO-K1), this compound returned an IC50 of 500 nM.

As for `NCCCCN` [Putrescine, putrescine, reference compound], the viability at 1 µM in data set [1] (Homo sapiens, SW-620, 72 h, read-out: Relative viability) stood at 100%.

As to `NCCCCNCCCN` [spermidine, reference compound], the “% Viability” value in data set [2] (5 mM DFMO + 0.5 uM Spd, no trimer, 48 hour) is given as greater than 90%; in data set [2] (5 mM DFMO + 0.5 uM Spd, no trimer, 48 hour, listed as Spd), 91%.

With difluoromethylornithine [DFMO], in data set [1] (DFMO (1 mM), MTS assay), the reduction in growth stood at 50%. Moreover, the “DFMO reduction in cell growth” value in data set [5] (48, 72 and 96 hours) is reported as “time dependent”. For the same compound, the “response to DFMO” value in data set [9], in [10], in data set [11] and in data set [12] was “respond to DFMO in a time dependent matter” throughout.
